The text below walks through data of US4774241A, “Derivative of benzoquinonylphenyl alkanoic acid amide” (Suntory Limited, priority 1986, dated 1988).

Structures are written as SMILES.

Data set [1] deals with Male ddY mice (global ischemia). The experiment in a line: Global Ischemia Activity (gasping time after decapitation). The conditions noted are these: ip. The data set is classed as in vivo. On the procedure:
(§1) The activities of some compounds prepared in the above-mentioned Synthetic Examples and the Comparative Examples were evaluated as follows.
2. Global Ischemia Activity
Male ddY mice having a body weight of 22 to 30 g were used (i.e., 6 mice in one group). The sample compound was intraperitoneally injected into the mice and the mice were decapitated 30 minutes after the injection. After decapitation, the gasping times were determined. The results were compared with a control group to which only the liquid medium (i.e., physiological saline) was injected.

Data set [2] relates to Male ddY mice (hypobaric hypoxia). Put plainly: Hypobaric Hypoxia Activity (survival time of mice at 180 mmHg). It is filed as in vivo. The conditions noted are these: Mus musculus, ip, 30 minutes before evacuation, survival time vs. control, read-out: Hypobaric Hypoxia (Minimum effective dose). On the procedure: as §1
1. Hypobaric Hypoxia Activity
Male ddY mice having a body weight of 22 to 30 g were used (i.e., 7 to 10 mice in one group). The mice were placed in a desiccator having a volume of about 1 liter and the desiccator was evacuated and then, the sample compound was intraperitoneally injected […]. into the mice. The desiccator was evacuated 30 minutes after the injection and the time from the start of the evacuation to the termination of breathing by the mice was determined to be the survival time. If a mouse was still alive 15 minutes after exposure to the hypoxia, the survival time was assumed to be 15 minutes. The results were compared with a control group, to which only a liquid medium (e.g., physiological saline) was injected.

Another data set in a line: Acute Toxicity Test. Conditions: mouse, in vivo; ip, mice, suspended in 1% arabic gum. The source says:
Male ddY-STF mice having an age of 4 to 5 weeks and a body weight of 22 to 30 g were used for evaluating the acute toxicity of the present compounds. The sample compound was suspended in 1% arabic gum and was intraperitoneally injected.

With `COC1=C(OC)C(=O)C(C(CCC(=O)N2CCSCC2)c2ccccc2)=C(C)C1=O` (stereo not drawn) [Example 1, 4-(3,4-dimethoxy-6-methyl-2,5-benzoquinonyl)-4-phenyl-1-thiomorpholine-1-oxobutane], the minimal effective dose came out at 12.5 mg/kg in data set [1] (Mus musculus, 30 minutes before decapitation, gasping time vs. control, read-out: Global Ischemia (Minimum effective dose)) and 6.25 mg/kg in data set [2]. This molecule came in with an LD50 in “Acute Toxicity Test” of more than 1000 mg/kg.
For `COC1=C(OC)C(=O)C(C(CCC(=O)O)c2ccccc2)=C(C)C1=O` (stereo not drawn) [compound 1, 4-(3,4-Dimethoxy-6-methyl-2,5-benzoquinonyl)-4-phenylbutyric acid, reference compound], in “Acute Toxicity Test”, the 50% lethal dose (LD50) is more than 500 mg/kg.
Turning to `COC1=C(OC)C(=O)C(C(CCCC(=O)N2CCSCC2)c2ccccc2)=C(C)C1=O` (stereo not drawn) [Example 4, 5-(3,4-dimethoxy-6-methyl-2,5-benzoquinonyl)-5-phenyl-1-thiomorpholino-1-oxopentane], the minimal effective dose in data set [2] came out at 6.25 mg/kg. This molecule also returned an LD50 in “Acute Toxicity Test” of more than 1000 mg/kg.
As for `COC1=C(OC)C(=O)C(C(CCCCCC(=O)O)c2ccccc2)=C(C)C1=O` (stereo not drawn) [compound 3, 7-(3,4-Dimethoxy-6-methyl-2,5-benzoquinonyl)-7-phenylheptanoic acid, reference compound], in data set [1] (25 mg/kg), the Gasping time entry is “Gasping time was shortened”. Besides, the LD50 in “Acute Toxicity Test” is more than 500 mg/kg.
In “Acute Toxicity Test”, `COC1=C(OC)C(=O)C(C(CCCC(=O)O)c2ccccc2)=C(C)C1=O` (stereo not drawn) [compound 2, 5-(3,4-Dimethoxy-6-methyl-2,5-benzoquinonyl)-5-phenylvaleric acid, reference compound] gave a 50% lethal dose (LD50) of more than 500 mg/kg.
In the case of `COC1=C(OC)C(=O)C(C(CCC(=O)N2CCN(C)CC2)c2ccccc2)=C(C)C1=O` (stereo not drawn) [Example 3, 4-(3,4-Dimethoxy-6-methyl-2,5-benzoquinonyl)-4-phenyl-1-(N-methylpiperazinyl)-1-oxobutane], in data set [2], the minimal effective dose was 25 mg/kg.
Take `COC1=C(OC)C(=O)C(C(CCCC(=O)N2CCOCC2)c2ccccc2)=C(C)C1=O` (stereo not drawn) [Example 5, 5-(3,4-dimethoxy-6-methyl-2,5-benzoquinonyl)-5-phenyl-1-morpholino-1-oxopentane]: the minimal effective dose in data set [2] was 6.25 mg/kg. Further, the median lethal dose (LD50) in “Acute Toxicity Test” was more than 1000 mg/kg.

Broadly, the LD50 is the dose expected to kill half of the subjects tested.
